Experimental data as given in ChEMBL document CHEMBL1201862, “PubChem BioAssay data set” (2004).
Active and inactive are the calls of the source. Rule as the data show it, for most assays here: actives have a measured EC50 and inactives only a lower limit.

What was measured:
[1] = inhibitors of intracellular T. cruzi replication, confirmation, NIH3T3 host cells, beta-gal luminescence (AID 2044); type: functional, cell-based;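 also: intracellular parasites grown in NIH/3T3 mouse fibroblasts as host cells; luminescent beta-galactosidase reporter signal from transgenic T. cruzi replicating inside host cells; inhibitors lower the luminescence signal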
INS1 = assay: beta cell apoptosis inhibitors, cytokine rescue, dose response, luminescence, retest (AID 449756); type: functional, cell-based; settings: Rattus norvegicus;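 also: cell death triggered by IL-1 beta plus TNF-alpha plus IFN-gamma mixture; protective hits raise ATP signal compared with cytokine alone wells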
[2] = cytotoxicity toward NIH3T3 fibroblasts, dose response, counter-screen, cell-based, ATP luminescence, mouse fibroblasts (AID 2010); type: functional;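 also: cells exposed to compound for about 90 hours before reading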
H4 = assay: Luminescence Cell-Based Dose Response HTS to Identify Activators of 5'UTR Stem-Loop Driven Prion Protein mRNA Translation in H4 Neuroglioblastoma Cells. [Related pubchem assays: 1829 (Project Summary), 1814 (Primary HTS)]; type: functional; settings: Homo sapiens
[3] = Luminescence Cell-Based Dose Response HTS to Identify Activators of Luciferase Translation or Activity in H4 […] Cells. [Related pubchem assays: 1829 (Project Summary), 1814 (Primary HTS)]; type: functional
[4] = Luminescence Cell-Based Dose Confirmation HTS to Identify Activators of 5'UTR Stem-Loop Driven Alpha-Synuclein mRNA Translation in H4 Neuroglioblastoma Cells. [Related pubchem assays: 1829 (Project Summary), 1814 (Primary HTS)]; type: functional
[5] = molecular target: T1, Rac GTPase-activating protein 1 (Homo sapiens, UniProt Q9H0H5); assay: MgcRacGAP GTPase-activating activity inhibitors, confirmation, biochemical, ADP Hunter fluorescence, primary and confirmatory (AID 624330); type: functional
T1 sequence (Q9H0H5 whole entry): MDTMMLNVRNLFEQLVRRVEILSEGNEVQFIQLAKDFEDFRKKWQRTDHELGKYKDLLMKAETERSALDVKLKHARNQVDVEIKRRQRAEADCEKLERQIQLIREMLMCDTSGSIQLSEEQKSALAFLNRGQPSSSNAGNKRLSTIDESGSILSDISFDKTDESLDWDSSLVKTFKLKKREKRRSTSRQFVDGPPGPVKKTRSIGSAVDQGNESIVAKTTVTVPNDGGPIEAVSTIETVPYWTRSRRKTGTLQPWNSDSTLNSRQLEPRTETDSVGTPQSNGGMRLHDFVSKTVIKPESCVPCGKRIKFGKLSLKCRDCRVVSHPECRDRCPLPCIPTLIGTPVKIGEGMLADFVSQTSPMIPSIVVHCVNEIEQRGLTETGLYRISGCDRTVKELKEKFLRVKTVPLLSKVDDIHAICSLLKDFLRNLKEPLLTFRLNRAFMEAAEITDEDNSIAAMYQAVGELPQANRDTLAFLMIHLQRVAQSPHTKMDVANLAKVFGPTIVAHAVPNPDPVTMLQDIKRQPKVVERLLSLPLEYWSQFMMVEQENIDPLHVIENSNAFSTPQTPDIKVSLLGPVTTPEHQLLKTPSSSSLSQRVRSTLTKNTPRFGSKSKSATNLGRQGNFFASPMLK

[6] = HEp-2 cell cytotoxicity, dose response, cytotoxicity control for RSV inhibitor project, HTS (AID 2410); type: functional; settings: human respiratory syncytial virus
Streptococcus = assay: Group A Streptococcus viability loss, dose response, counter-screen for streptokinase expression inhibitor project, luminescence, BacTiterGlo (AID 1915); type: functional, organism-based;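 also: potency for reduction of bacterial viability or growth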
[7] = system: Streptococcus sp. 'group A'; assay: growth inhibition of control SK(-) GAS strain, dose response, counter-screen for streptokinase expression inhibitor project, luminescence, kanamycin, BacTiterGlo, confirmation (AID 1900); type: functional, organism-based
[8] = molecular target: T2, Corticotropin-releasing factor receptor 2/Corticotropin-releasing factor-binding protein (Homo sapiens, UniProt P24387+Q13324); assay: Dose Response confirmation of uHTS hits for small molecule antagonists of the CRF-binding protein and CRF-R2 receptor complex.; type: functional; settings: read-out: IC50_Mean
T2 sequence (Q13324 whole entry): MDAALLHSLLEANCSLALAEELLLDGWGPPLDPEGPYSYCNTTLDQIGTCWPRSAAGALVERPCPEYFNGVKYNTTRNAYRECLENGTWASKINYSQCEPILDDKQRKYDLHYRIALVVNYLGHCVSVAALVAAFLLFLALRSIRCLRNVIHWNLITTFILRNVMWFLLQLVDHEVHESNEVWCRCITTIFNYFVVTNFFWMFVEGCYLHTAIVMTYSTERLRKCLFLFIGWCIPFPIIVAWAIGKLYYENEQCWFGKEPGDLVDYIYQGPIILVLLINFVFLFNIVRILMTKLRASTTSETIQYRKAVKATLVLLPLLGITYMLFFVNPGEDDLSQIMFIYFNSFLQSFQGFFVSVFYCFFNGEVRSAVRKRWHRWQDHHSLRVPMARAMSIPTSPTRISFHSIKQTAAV
T2 sequence (P24387 whole entry): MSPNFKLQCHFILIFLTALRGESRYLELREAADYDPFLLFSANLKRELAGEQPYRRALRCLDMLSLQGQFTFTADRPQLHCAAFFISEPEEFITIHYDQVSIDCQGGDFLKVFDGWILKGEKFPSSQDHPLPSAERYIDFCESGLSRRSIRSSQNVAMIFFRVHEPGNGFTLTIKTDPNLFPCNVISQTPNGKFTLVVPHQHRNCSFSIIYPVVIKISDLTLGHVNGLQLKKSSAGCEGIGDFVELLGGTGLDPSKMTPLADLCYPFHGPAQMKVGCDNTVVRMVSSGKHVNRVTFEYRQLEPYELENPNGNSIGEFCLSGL

[9] = molecular target: T3, Replicative DNA helicase DnaB (Mycobacterium tuberculosis, UniProt P9WMR3); assay: DnaB intein splicing inhibitors, dose response, biochemical, cell-free fluorescence (AID 449749); type: functional
T3 sequence (P9WMR3 whole entry): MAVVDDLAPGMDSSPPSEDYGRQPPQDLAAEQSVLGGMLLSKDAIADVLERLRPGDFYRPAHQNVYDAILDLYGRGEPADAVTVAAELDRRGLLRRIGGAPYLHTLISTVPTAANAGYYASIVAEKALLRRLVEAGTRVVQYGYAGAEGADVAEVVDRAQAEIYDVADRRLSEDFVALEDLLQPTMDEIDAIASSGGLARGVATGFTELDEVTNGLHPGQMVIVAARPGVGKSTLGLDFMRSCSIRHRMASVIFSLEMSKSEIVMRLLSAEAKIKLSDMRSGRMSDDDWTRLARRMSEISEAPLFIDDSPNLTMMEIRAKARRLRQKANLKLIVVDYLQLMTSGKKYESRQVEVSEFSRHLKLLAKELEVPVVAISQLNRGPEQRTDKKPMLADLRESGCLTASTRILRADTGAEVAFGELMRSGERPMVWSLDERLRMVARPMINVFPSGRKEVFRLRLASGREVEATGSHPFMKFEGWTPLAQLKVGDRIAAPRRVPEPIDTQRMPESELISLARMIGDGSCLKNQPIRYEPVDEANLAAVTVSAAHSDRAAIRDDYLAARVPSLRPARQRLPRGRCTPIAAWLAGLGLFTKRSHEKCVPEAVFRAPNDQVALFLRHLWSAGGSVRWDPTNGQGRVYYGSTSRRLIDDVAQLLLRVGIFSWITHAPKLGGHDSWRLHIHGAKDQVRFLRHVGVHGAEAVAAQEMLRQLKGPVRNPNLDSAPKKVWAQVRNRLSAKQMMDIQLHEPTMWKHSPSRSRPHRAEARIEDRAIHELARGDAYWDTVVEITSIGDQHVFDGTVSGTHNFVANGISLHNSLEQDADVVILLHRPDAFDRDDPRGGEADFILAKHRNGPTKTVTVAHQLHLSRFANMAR

[10] = molecular target: T2, Corticotropin-releasing factor receptor 2/Corticotropin-releasing factor-binding protein; assay: activators of CRF receptor 2 with binding protein – uHTS hits, confirmation (AID 602473); type: functional; settings: read-out: EC50_Mean
Protein RecA = molecular target: T4, Protein RecA (Mycobacterium tuberculosis, UniProt P9WHJ3); assay: Fluorescence Cell-Free Homogeneous Dose Retest to Identify Inhibitors of RecA-Intein Splicing Activity. [Related pubchem assays (depositor defined):AID2097, AID2223, AID489010, AID492950]; type: functional
T4 sequence (P9WHJ3 whole entry): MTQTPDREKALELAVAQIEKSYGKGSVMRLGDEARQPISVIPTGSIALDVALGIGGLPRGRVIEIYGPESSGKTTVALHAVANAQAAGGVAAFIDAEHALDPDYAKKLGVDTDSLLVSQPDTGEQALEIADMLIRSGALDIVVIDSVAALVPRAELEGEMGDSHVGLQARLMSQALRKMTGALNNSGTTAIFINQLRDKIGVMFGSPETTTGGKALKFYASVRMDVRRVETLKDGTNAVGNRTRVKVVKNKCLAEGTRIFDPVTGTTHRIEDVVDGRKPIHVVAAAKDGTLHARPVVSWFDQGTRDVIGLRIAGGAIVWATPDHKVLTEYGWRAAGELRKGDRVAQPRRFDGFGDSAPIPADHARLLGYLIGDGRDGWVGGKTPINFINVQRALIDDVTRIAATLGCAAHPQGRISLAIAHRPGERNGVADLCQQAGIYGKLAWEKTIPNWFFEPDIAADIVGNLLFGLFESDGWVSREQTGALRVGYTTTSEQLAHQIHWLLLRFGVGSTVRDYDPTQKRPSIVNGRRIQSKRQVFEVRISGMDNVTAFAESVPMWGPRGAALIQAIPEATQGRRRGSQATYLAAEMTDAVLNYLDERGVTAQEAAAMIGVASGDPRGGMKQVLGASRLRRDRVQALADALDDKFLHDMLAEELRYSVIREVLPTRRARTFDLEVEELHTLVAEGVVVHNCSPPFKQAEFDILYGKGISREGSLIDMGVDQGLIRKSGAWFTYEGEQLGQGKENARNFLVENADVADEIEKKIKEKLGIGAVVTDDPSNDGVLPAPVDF

SMILES: N#CCC(=O)N/N=C/c1cc(-c2ccccc2)n(-c2ccc(Cl)cc2)c1-c1ccccc1
- EC50 [1]: 1.51 µM (active)
- AC50 (INS1): 3.21 µM (active)
- EC50 [2]: > 60 µM (inconclusive)

SMILES: O=C(Cc1ccc([N+](=O)[O-])cc1)Nc1cccnc1
- AC50 (INS1): 21.1 µM (active)

SMILES: Cn1c(CN2CCOCC2)nc2cc(NC(=O)c3ccc(Cl)cc3)ccc21
- EC50 (H4): > 120 µM (not active)
- EC50 [3]: 14.3 µM (active)
- EC50 [4]: 26.7 µM (active)

SMILES: Nc1ccc(N2CCN(c3ccc(Cl)c(Cl)c3)CC2)cc1
- IC50 [5]: 18.1 µM (active)

SMILES: COc1ccc2oc(=O)c(C(=O)N3CCN(c4ccccc4C)CC3)cc2c1
- EC50 (H4): 19 µM (active)
- EC50 [3]: 17 µM (active)
- EC50 [4]: 57 µM (active)

SMILES: O=C1CCC(C2CCc3cc(O)ccc3C2)C1 (stereo not given)
- IC50 [5]: 70.4 µM (active)

SMILES: COc1cc(/C=N/NC(=O)c2nc(-c3ccccc3)n(-c3ccccc3)n2)ccc1O
- IC50 [5]: 38.7 µM (active)

SMILES: COc1cccc(NC(=O)C(=O)NCC2CCCN2S(=O)(=O)c2ccccc2)c1 (stereo not given)
- EC50 (H4): 58.8 µM (active)
- EC50 [3]: 2.67 µM (active)
- EC50 [4]: 4.26 µM (active)

SMILES: CC(C(=O)Nc1ccc2c(c1)OCO2)N1CCN(C)CC1 (stereo not given)
- IC50 [5]: 65.3 µM (active)

SMILES: Cc1ccc2c(c1)C(c1ccncc1)=NNC(c1ccccc1)=N2
- EC50 (H4): 21.2 µM (active)
- EC50 [3]: > 120 µM (not active)
- EC50 [4]: 0.364 µM (active)

SMILES: Cc1ccc2nc(Nc3ccc(Cl)cc3)c3nncn3c2c1
- CC50 [6]: 34.4 µM (active)

SMILES: OCCCn1c(C(CO)Nc2nc(-c3ccc(Cl)cc3)cs2)nc2ccccc21 (stereo not given)
- CC50 [6]: 15.5 µM (active)

SMILES: O=C(/N=C1\SCC(=O)N1c1ccccc1Cl)c1ccco1
- EC50 [3]: 8.06 µM (active)
- EC50 [4]: 4.12 µM (active)

SMILES: Cc1ccc(O)c(NC(=S)NC(=O)c2ccc(-c3ccc(Cl)cc3)o2)c1
- AC50 (INS1): 16.7 µM (active)
- EC50 (Streptococcus): 5.74 µM (active)
- EC50 [7]: 1.16 µM (active)

SMILES: CCOc1cc(/C=N/NC(=O)C(=O)NCc2cccnc2)ccc1O
- IC50 [5]: 54.5 µM (active)

SMILES: CC1CC(C)(C)N(C(=O)CN2CCN(C)CC2)c2ccccc21 (stereo not given)
- IC50 [5]: 85.3 µM (active)

SMILES: C/C(=N\N1C(=O)c2ccccc2NC1c1ccccc1)c1ccccc1O (stereo not given)
- EC50 [1]: 2.13 µM (active)
- AC50 (INS1): 2.24 µM (active)
- EC50 [2]: 7.4 µM (active)

SMILES: CCOC(=O)C1=C(O)c2ccccc2C(=O)/C1=C\c1ccc(C)cc1
- CC50 [6]: 31.5 µM (active)

SMILES: COc1cc(/C=C(\C#N)C(=O)Nc2ccc3c(c2)OCCO3)ccc1O
- IC50 [8]: > 47.1 µM (inactive)
- AC50 [9]: 75.9 µM (active)
- IC50 [5]: 34 µM (active)
- EC50 [10]: > 53 µM (inactive)
- EC50 (Protein RecA): 13.9 µM (active)

SMILES: O=c1c2ccccc2nc(/C=C/c2ccc(O)c(O)c2)n1-c1ccccc1
- IC50 [5]: 73.9 µM (active)

SMILES: COC(=O)C1=C(C)N(CC2CCCO2)C(=O)/C1=C\c1ccc(O)cc1 (stereo not given)
- IC50 [5]: 25 µM (active)

SMILES: Cc1ccc(S(=O)(=O)N2CCN(C(=O)CN3CCN(c4ccc(O)cc4)CC3)CC2)cc1
- IC50 [5]: 32.4 µM (active)

SMILES: COc1cc(/C=C/C(=O)OCC(=O)N(CC(C)C)c2c(N)n(Cc3ccccc3)c(=O)[nH]c2=O)ccc1O
- IC50 [5]: 65.7 µM (active)
- EC50 [10]: 2.73 µM (active)

SMILES: O=C(Cc1cccs1)Nc1cccc(-c2nnc(-c3ccco3)o2)c1
- CC50 [6]: > 12.5 µM (active)

SMILES: COc1cc(-c2nc3ccc(C)cn3c2NCc2ccccc2)ccc1SC1CCCCC1
- AC50 (INS1): 4.87 µM (active)
